Reference: patent US10245261B2, “Substituted indol-5-ol derivatives and their therapeutic applications” (NantBioScience, Inc., priority 2013, dated 2019)

Experiments:
Experiment in all cases: KinaseProfiler kinase assay
Type in all cases: biochemical
Rse(h) = Rse(h) (Homo sapiens, UniProt Q06418)
Procedure, shortened: (§1)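 Kinase activity is followed by incorporation of 33P from [γ-33P]ATP in 8 mM MOPS pH 7.0 with 10 mM Mg acetate and 0.2 mM EDTA over 40 min at room temperature. Inhibition is scaled between no-kinase and phosphopeptide control wells.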

cKit(h) = cKit(h) (Homo sapiens, UniProt P10721)
Procedure, shortened: as §1

CaMKIIγ(h) = CaMKIIγ(h) (Homo sapiens, UniProt Q13555)
Procedure, shortened: as §1

Lck(h) activated = Lck(h) activated (Homo sapiens, UniProt P06239)
Chain of Lck(h) activated (P06239 whole entry): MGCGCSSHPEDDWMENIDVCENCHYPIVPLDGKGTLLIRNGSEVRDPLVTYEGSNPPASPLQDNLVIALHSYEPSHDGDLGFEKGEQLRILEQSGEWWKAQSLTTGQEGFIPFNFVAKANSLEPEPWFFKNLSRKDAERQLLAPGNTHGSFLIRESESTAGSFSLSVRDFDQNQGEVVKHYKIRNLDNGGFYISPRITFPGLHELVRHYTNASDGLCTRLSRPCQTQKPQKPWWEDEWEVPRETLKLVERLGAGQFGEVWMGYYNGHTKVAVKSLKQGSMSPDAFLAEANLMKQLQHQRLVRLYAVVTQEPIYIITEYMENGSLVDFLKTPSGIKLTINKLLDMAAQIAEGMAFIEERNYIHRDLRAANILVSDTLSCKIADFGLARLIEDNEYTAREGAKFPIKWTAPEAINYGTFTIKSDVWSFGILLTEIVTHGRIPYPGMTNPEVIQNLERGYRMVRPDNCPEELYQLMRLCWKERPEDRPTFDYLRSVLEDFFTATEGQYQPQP
Procedure, shortened: as §1

PIP4K2α(h) = PIP4K2α(h) (Homo sapiens, UniProt P48426)
Procedure, shortened: as §1

PKCβII(h) = PKCβII(h) (Homo sapiens, UniProt P05771)
Procedure, shortened: as §1

CK2α2(h) = CK2α2(h) (Homo sapiens, UniProt P19784)
Procedure, shortened: as §1

[1] = molecular target: PI3 Kinase (p110α(E542K)/p85α)(h) (Homo sapiens, UniProt P42336, E542K)
Procedure, shortened: as §1

[2] = molecular target: PI3 Kinase (p110α/p65α)(m) (Mus musculus, UniProt P42337)
Procedure, shortened: as §1

Pim-1(h) = Pim-1(h) (Homo sapiens, UniProt P11309)
Procedure, shortened: as §1

PKCμ(h) = PKCμ(h) (Homo sapiens, UniProt Q15139)
Chain of PKCμ(h) (Q15139 whole entry): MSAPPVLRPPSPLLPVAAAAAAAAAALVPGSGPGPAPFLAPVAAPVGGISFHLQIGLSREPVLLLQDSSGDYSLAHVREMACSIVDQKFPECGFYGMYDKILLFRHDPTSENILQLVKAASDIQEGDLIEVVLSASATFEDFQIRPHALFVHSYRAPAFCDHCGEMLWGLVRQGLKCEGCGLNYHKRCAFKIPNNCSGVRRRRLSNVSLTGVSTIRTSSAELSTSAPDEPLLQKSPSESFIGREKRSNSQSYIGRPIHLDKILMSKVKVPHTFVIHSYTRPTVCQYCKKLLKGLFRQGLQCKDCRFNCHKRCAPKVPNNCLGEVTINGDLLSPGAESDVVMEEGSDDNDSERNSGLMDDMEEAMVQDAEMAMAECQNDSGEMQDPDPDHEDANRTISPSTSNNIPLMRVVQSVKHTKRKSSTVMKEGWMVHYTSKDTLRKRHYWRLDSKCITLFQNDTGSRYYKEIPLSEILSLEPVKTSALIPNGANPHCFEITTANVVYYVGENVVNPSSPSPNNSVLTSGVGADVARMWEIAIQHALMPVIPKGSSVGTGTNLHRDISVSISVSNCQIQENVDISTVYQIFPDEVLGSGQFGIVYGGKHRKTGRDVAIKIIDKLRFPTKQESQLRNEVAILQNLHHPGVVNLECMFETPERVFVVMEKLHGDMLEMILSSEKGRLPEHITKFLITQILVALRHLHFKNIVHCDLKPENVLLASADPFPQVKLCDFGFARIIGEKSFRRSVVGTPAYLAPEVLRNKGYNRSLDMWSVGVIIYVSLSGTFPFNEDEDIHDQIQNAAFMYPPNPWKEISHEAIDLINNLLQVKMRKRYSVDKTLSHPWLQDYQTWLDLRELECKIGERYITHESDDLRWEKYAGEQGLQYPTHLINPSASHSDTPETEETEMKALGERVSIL
Procedure, shortened: as §1

MKK7β(h) = MKK7β(h) (Homo sapiens, UniProt O14733)
Procedure, shortened: as §1

MKK4(m) = MKK4(m) (Mus musculus, UniProt P47809)
Chain of MKK4(m) (P47809 whole entry): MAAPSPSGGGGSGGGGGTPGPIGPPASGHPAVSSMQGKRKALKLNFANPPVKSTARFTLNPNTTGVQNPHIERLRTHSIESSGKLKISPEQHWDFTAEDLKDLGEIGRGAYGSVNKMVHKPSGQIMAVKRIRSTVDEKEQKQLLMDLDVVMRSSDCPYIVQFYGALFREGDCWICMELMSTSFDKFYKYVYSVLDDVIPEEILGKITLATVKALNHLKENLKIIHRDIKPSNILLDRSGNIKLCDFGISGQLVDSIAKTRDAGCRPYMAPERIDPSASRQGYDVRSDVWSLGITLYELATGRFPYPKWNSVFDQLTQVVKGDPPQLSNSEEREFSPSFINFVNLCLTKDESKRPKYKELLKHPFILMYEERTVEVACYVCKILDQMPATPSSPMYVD
Procedure, shortened: as §1

c-RAF(h) = c-RAF(h) (Homo sapiens, UniProt P04049, Y340D/Y341D)
Chain of c-RAF(h) (P04049 306-648 Y340D/Y341D): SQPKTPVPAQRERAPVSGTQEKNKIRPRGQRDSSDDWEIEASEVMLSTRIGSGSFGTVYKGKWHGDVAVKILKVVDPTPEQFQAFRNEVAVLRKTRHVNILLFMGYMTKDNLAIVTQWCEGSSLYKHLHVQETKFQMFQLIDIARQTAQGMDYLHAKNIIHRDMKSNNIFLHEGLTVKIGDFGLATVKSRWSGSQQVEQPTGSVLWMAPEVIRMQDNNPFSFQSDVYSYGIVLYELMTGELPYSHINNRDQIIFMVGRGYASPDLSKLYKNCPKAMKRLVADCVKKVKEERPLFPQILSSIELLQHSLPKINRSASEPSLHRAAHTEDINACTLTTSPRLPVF
Procedure, shortened: as §1

GSK3β(h) = GSK3β(h) (Homo sapiens, UniProt P49841)
Procedure, shortened: as §1

Tec(h) activated = Tec(h) activated (Homo sapiens, UniProt P42680)
Procedure, shortened: as §1

CHK1(h) = CHK1(h) (Homo sapiens, UniProt O14757)
Procedure, shortened: as §1

CaMKIIβ(h) = CaMKIIβ(h) (Homo sapiens, UniProt Q13554)
Procedure, shortened: as §1

SIK(h) = SIK(h) (Homo sapiens, UniProt P57059)
Procedure, shortened: as §1

BrSK1(h) = BrSK1(h) (Homo sapiens, UniProt Q8TDC3)
Procedure, shortened: as §1

Rsk3(h) = Rsk3(h) (Homo sapiens, UniProt Q15349)
Procedure, shortened: as §1

MAPK2(m) = MAPK2(m) (Mus musculus, UniProt P63085)
Chain of MAPK2(m) (P63085 whole entry): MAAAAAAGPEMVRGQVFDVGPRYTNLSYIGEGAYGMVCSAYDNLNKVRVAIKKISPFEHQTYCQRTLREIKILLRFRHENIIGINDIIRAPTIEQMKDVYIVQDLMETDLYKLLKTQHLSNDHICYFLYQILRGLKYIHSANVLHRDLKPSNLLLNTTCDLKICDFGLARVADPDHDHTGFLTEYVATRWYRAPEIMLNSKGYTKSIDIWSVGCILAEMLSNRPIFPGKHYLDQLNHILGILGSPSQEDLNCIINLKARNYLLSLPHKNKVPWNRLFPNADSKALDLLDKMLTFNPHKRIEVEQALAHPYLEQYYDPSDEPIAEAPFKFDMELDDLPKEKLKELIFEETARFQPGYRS
Procedure, shortened: as §1

NEK6(h) = NEK6(h) (Homo sapiens, UniProt Q9HC98)
Procedure, shortened: as §1

DAPK1(h) = DAPK1(h) (Homo sapiens, UniProt P53355)
Procedure, shortened: as §1

[3] = molecular target: PI3 Kinase (p113α)(H1047R)/p85α)(m) (Mus musculus, UniProt P42337, H1047R)
Procedure, shortened: as §1

PAK2(h) = PAK2(h) (Homo sapiens, UniProt Q13177)
Procedure, shortened: as §1

[4] = molecular target: PI3 Kinase (p110δ/p85α)(h) (Homo sapiens, UniProt O00329)
Chain of PI3 Kinase (p110δ/p85α)(h) (O00329 whole entry): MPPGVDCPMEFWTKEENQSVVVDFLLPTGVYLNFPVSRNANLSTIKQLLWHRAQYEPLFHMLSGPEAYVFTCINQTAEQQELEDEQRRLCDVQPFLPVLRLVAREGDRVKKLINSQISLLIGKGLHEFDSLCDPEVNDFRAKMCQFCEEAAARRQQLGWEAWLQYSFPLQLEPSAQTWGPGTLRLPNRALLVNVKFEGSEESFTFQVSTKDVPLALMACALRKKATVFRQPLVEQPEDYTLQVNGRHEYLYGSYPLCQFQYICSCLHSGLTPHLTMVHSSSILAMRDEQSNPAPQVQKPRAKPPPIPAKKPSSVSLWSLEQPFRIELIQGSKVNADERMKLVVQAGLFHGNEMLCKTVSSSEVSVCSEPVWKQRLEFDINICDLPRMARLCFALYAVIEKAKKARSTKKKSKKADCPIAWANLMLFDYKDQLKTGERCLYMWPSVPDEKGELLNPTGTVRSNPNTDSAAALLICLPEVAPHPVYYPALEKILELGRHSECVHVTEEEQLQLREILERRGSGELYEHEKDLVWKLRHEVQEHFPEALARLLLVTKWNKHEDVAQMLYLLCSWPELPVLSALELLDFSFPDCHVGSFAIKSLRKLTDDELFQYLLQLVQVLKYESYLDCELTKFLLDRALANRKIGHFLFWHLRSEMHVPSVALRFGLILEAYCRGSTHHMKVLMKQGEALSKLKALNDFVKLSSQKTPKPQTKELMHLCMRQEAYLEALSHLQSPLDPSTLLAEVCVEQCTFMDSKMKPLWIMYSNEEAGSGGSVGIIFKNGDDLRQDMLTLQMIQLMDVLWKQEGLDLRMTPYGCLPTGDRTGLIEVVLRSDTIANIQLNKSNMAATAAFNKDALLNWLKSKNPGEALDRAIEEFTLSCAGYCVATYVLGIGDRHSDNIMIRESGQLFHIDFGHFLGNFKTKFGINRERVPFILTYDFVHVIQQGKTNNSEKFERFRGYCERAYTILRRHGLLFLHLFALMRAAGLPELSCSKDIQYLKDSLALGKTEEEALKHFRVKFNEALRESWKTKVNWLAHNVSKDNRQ
Chain of PI3 Kinase (p110δ/p85α)(h) (P27986 whole entry partner): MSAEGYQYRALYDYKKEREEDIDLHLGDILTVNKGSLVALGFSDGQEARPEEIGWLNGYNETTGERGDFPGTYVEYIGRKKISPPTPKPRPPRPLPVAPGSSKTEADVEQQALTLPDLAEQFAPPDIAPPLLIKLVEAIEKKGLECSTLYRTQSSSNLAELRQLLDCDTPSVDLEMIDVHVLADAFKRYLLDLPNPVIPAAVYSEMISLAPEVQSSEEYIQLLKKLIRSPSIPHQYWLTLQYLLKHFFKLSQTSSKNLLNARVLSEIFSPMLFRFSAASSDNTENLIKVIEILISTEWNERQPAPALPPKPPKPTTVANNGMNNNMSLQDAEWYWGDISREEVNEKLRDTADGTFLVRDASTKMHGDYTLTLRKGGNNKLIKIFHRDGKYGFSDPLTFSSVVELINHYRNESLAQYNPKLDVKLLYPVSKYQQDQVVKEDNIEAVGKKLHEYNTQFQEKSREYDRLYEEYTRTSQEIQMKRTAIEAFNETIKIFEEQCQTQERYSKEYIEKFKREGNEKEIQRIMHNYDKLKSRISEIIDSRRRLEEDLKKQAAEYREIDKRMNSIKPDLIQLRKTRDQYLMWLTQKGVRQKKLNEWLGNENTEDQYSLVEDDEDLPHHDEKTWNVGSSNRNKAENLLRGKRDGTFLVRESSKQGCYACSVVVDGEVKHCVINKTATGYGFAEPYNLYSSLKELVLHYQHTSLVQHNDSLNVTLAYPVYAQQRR
Procedure, shortened: as §1

IKKβ(h) = IKKβ(h) (Homo sapiens, UniProt O14920)
Procedure, shortened: as §1

MARK1(h) = MARK1(h) (Homo sapiens, UniProt Q9P0L2)
Procedure, shortened: as §1

TSSK2(h) = TSSK2(h) (Homo sapiens, UniProt Q96PF2)
Procedure, shortened: as §1

Snk(h) = Snk(h) (Homo sapiens, UniProt Q9NYY3)
Chain of Snk(h) (Q9NYY3 whole entry): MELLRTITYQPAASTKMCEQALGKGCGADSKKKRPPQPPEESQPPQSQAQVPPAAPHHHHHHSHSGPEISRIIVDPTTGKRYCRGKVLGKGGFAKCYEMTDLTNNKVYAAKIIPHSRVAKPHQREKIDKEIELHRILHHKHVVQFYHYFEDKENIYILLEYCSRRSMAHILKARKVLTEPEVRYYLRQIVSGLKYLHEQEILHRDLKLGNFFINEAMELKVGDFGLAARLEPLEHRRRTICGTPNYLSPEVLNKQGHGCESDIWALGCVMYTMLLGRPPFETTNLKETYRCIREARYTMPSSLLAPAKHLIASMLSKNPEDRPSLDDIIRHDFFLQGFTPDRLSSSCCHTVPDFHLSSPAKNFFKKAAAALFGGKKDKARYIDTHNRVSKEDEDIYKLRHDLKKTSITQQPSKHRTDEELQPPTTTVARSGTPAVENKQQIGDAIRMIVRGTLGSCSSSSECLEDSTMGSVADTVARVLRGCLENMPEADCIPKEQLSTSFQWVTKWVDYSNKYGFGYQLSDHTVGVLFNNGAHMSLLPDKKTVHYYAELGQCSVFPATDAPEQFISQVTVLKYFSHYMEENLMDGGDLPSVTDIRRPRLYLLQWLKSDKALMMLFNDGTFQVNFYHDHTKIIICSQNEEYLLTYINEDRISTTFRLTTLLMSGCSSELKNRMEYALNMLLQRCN
Procedure, shortened: as §1

SMILES | inhibition at 0.1 µM (Rse(h)) [%] | inhibition at 0.1 µM (cKit(h)) [%] | inhibition at 0.1 µM (CaMKIIγ(h)) [%] | inhibition at 0.1 µM (Lck(h) activated) [%] | inhibition at 0.1 µM (PIP4K2α(h)) [%] | inhibition at 0.1 µM (PKCβII(h)) [%] | inhibition at 0.1 µM (CK2α2(h)) [%] | inhibition at 0.1 µM [1] [%] | inhibition at 0.1 µM [2] [%] | inhibition at 0.1 µM (Pim-1(h)) [%] | inhibition at 0.1 µM (PKCμ(h)) [%] | inhibition at 0.1 µM (MKK7β(h)) [%] | inhibition at 0.1 µM (MKK4(m)) [%] | inhibition at 0.1 µM (c-RAF(h)) [%] | inhibition at 0.1 µM (GSK3β(h)) [%] | inhibition at 0.1 µM (Tec(h) activated) [%] | inhibition at 0.1 µM (CHK1(h)) [%] | inhibition at 0.1 µM (CaMKIIβ(h)) [%] | inhibition at 0.1 µM (SIK(h)) [%] | inhibition at 0.1 µM (BrSK1(h)) [%] | further results
Cc1cc2c(F)c(Oc3nc(Nc4cc(C5CC5)[nH]n4)cc(N4CCN(C)CC4)n3)ccc2[nH]1 [Compound 10] | 3 | 0 | -8 | 97 | 1 | 3 | -13 | -1 | -1 | -21 | 7 | -26 | -2 | 6 | -15 | 46 | 16 | -5 | 50 | 47 | inhibition at 0.1 µM (Rsk3(h)): 63%; inhibition at 0.1 µM (MAPK2(m)): -16%; inhibition at 0.1 µM (NEK6(h)): -11%; inhibition at 0.1 µM (DAPK1(h)): 0%; inhibition at 0.1 µM [3]: -1%; inhibition at 0.1 µM (PAK2(h)): 16%; inhibition at 0.1 µM [4]: 2%; inhibition at 0.1 µM (IKKβ(h)): 1%; inhibition at 0.1 µM (MARK1(h)): 67%; inhibition at 0.1 µM (TSSK2(h)): 5%; inhibition at 0.1 µM (Snk(h)): 9%
Cc1cc2c(F)c(Oc3nc(Nc4cc(C5CC5)[nH]n4)cc(N4CCNCC4)n3)ccc2[nH]1 [Compound 11, N-(5-cyclopropyl-1H-pyrazol-3-yl)-2-((4-fluoro-2-methyl-1H-indol-5-yl)oxy)-6-(piperazin-1-yl)pyrimidin-4-amine] | 11 | 24 | 22 | 100 | -4 | -3 | 8 | 0 | 2 | -9 | -7 | -16 | -28 | 1 | 19 | 20 | 0 | 8 | 56 | 40 | inhibition at 0.1 µM (Rsk3(h)): 63%; inhibition at 0.1 µM (MAPK2(m)): 10%; inhibition at 0.1 µM (NEK6(h)): -11%; inhibition at 0.1 µM (DAPK1(h)): 3%; inhibition at 0.1 µM [3]: 0%; inhibition at 0.1 µM (PAK2(h)): 0%; inhibition at 0.1 µM [4]: -1%; inhibition at 0.1 µM (IKKβ(h)): 5%; inhibition at 0.1 µM (MARK1(h)): 64%; inhibition at 0.1 µM (TSSK2(h)): 2%; inhibition at 0.1 µM (Snk(h)): 5%
